One data set relates to NCI-H460 cells. The data set can be described thus: MTT assay, cell growth inhibition, NCI-H460. The class given is cell-based. The conditions noted are these: Homo sapiens, 72 h, three independent experiments. How it is done: (§1) A series of 3-aryl-naphtho[2,3-d]isoxazole-4,9-diones were synthesized (Scheme 1, Figure 1) and their growth inhibition activity was tested in vitro on human non-small cell lung carcinoma NCI-H460, colorectal carcinoma DLD1 and their corresponding MDR cells (NCI-H460/R and DLD1-TxR, respectively), as well as normal embryonic lung fibroblasts MRC-5. The differences in cell growth inhibition between cancer and normal cells obtained by the MTT assay after 72 h treatment are presented in Table 1. The effect of compounds is presented as IC50 values that correspond to the 50% of cell growth inhibition.
(§2) Cell viability was assessed by the MTT assay (AppliChem GmbH, Darmstadt, Germany). Cells grown in 25 cm^2 tissue flasks were trypsinized and 1000 cells/well were seeded into flat-bottomed 96-well tissue culture plates and incubated overnight. Subsequently, the cells were treated with increasing concentrations of Hsp90 inhibitors for 72 h: compound 3 (0.1–2.5 µM), compound 4 (0.25–5 µM), compound 5 (0.5–25 µM), compound 6 (50–1000 nM), compound 7 (10–250 nM), compound 8 (0.25–5 µM), compound 9 (10–250 nM), compound 10 (0.5–25 µM), compound 13 (0.5–10 µM), compound 14 (1–25 µM), and compound 15 (10–250 nM). […] After treatment, MTT was added to each well in a final concentration of 0.2 mg/mL for 4 h. Formazan product was dissolved in 200 µl of DMSO, and the absorbance was measured at 540 nm using an automatic LKB 5060-006 Micro Plate Reader (Vienna, Austria). IC50 value was defined as a concentration of the drug that inhibited cell growth by 50% and was calculated by nonlinear regression analysis using GraphPad Prism 6.0 for Windows (La Jolla, CA, USA). Relative selectivity towards cancer cells was calculated as a relation between IC50 value obtained in MRC-5 cells and an average IC50 value from four tested cancer cell lines.
A general note: Formazan colour is commonly taken as a measure of viable cells.

The subject of a further data set is DLD1-TxR cells. The data set can be described thus: MTT assay, cell growth inhibition, DLD1-TxR (MDR). The format is cell-based, human. The conditions noted are these: 72 h; for IC50: Homo sapiens, MDR cells. As for the experimental part: as §1
Human colorectal carcinoma (DLD1), non-small cell lung carcinoma (NCI-H460), and normal embryonic lung fibroblast (MRC-5) cell lines were purchased from the American Type Culture Collection, Rockville, MD. P-gp overexpressing multidrug resistant DLD1-TxR cells were selected by continuous exposure to stepwise increasing concentrations of paclitaxel from DLD1 cells, while NCI-H460/R cells were selected from NCI-H460 cells after DOX selective pressure. MDR cancer cell lines, DLD1-TxR and NCI-H460/R, and their sensitive counterparts were maintained in RPMI 1640 medium supplemented with 10% FBS, 2 mM L-glutamine, and 10,000 U/mL penicillin, 10 mg/mL streptomycin, 25 mg/mL amphotericin B solutions. MRC-5 cells were cultured in DMEM supplemented with 10% FBS, 4 g/L glucose, 2 mM L-glutamine and 5000 U/mL penicillin, 5 mg/mL streptomycin solution. All cell lines were sub-cultured at 72 h intervals using 0.25% trypsin/EDTA and seeded into a fresh medium at 8000 cells/cm^2. All cell lines were maintained at 37 °C in a humidified 5% CO2 atmosphere.
as §2

The target in data set [1] is T1, P-gp (Homo sapiens, UniProt P08183). Nature of the data set: P-gp ATPase activity assay (Pgp-Glo). The class given is biochemical. Also on record: purchased Promega. The conditions noted are these: 5: 5, 10, 20 µM; 7 and 9: 100, 250, 500 nM; Figure 5a. How it is done: P-gp relies on the ATP hydrolysis energy to extrude the substrate outside the cell and compounds that interact with P-gp can stimulate or inhibit its ATPase activity. Compounds that are P-gp substrates usually stimulate its ATPase activity. Pgp-Glo™ assay system (Promega, Madison, WI, USA) detects the compound’s effect on recombinant human P-gp in a cell membrane fraction. P-gp ATPase activity was measured using luminescent Pgp-Glo™ assay kit according to manufacturer’s instructions. Briefly, ATP was first incubated with P-gp; then the P-gp ATPase reaction was stopped, and the remaining unmetabolized ATP was detected as a luciferase-generated luminescent signal. Pgp-dependent decreases in luminescence reflect ATP consumption by P-gp; thus, the greater the decrease in signal, the higher the P-gp activity. […] Verapamil and sodium orthovanadate, supplied in the assay kit were used as positive controls. Verapamil is a P-gp substrate and competitive inhibitor, and sodium orthovanadate is a noncompetitive inhibitor of P-gp ATPase activity. The luminescence of samples treated with increasing concentrations of compound 5 (5 µM, 10 µM and 20 µM), compound 7 (100 nM, 250 nM and 500 nM) and compound 9 (100 nM, 250 nM and 500 nM), was measured with a luminometer microplate reader (CHAMELEON™V, Hidex, Turku, Finland).

The next data set has as its system P-gp expression. Nature of the data set: Flow cytometric analysis of P-gp expression. The format is cell-based, human. The conditions noted are these: 72 h; for Change in P-gp expression, DLD1 / Change in P-gp expression, NCI-H460: 5 µM 5, 200 nM 7, 100 nM 9, 10 nM TQ, 50 nM DOX, 50 nM PTX. How it is done:
P-glycoprotein expression level in NCI-H460, NCI-H460/R, DLD1, and DLD1-TxR and cells was measured by flow cytometry. All cell lines were seeded in adherent 6-well plates and treated with Hsp90 inhibitors for 72 h at the following concentrations: 5 µM compound 5, 200 nM compound 7, 100 nM compound 9 (NCI-H460 and DLD1), and 10 µM compound 5, 500 nM compound 7, 500 nM compound 9 (NCI-H460/R and DLD1-TxR). Cells were also treated with 10 nM TQ, a non-competitive P-gp inhibitor, which served as a positive control. In addition, sensitive cells (NCI-H460 and DLD1) were treated with 50 nM DOX and 50 nM PTX that served as positive controls for the induction of P-gp expression. Then, cells were collected by trypsinization, washed with PBS, and directly immunostained by FITC-conjugated anti-P-gp antibody according to the manufacturer’s protocol. The samples were kept in the dark until the analysis on CyFlow Space Partec flow cytometer (Sysmex Partec GmbH, Görlitz, Germany). The fluorescence of FITC-conjugated anti-P-gp was detected on fluorescence channel 1 (FL1-H) at 530 nm. A minimum of 10,000 events were collected for each sample (the gate excluded cell debris and dead cells) and the obtained results were analyzed with Summit software v4.3 (Dako Colorado Inc., Fort Collins, CO, USA).

The target of data set [2] is T1, P-gp. The data set can be described thus: Rhodamine 123 accumulation assay (P-gp activity, flow cytometry). The note with it: NCI-H460/R and DLD1-TxR, 30 min, Figure 3b. The format is cell-based. Also on record: P-gp overexpressing multidrug resistant DLD1-TxR cells were selected by continuous exposure to stepwise increasing concentrations of paclitaxel from DLD1 cells; endogenous in cells; host or cells: NCI-H460/R and DLD1-TxR (drug-selected MDR human cancer cells).

T1 sequence (P08183 whole entry): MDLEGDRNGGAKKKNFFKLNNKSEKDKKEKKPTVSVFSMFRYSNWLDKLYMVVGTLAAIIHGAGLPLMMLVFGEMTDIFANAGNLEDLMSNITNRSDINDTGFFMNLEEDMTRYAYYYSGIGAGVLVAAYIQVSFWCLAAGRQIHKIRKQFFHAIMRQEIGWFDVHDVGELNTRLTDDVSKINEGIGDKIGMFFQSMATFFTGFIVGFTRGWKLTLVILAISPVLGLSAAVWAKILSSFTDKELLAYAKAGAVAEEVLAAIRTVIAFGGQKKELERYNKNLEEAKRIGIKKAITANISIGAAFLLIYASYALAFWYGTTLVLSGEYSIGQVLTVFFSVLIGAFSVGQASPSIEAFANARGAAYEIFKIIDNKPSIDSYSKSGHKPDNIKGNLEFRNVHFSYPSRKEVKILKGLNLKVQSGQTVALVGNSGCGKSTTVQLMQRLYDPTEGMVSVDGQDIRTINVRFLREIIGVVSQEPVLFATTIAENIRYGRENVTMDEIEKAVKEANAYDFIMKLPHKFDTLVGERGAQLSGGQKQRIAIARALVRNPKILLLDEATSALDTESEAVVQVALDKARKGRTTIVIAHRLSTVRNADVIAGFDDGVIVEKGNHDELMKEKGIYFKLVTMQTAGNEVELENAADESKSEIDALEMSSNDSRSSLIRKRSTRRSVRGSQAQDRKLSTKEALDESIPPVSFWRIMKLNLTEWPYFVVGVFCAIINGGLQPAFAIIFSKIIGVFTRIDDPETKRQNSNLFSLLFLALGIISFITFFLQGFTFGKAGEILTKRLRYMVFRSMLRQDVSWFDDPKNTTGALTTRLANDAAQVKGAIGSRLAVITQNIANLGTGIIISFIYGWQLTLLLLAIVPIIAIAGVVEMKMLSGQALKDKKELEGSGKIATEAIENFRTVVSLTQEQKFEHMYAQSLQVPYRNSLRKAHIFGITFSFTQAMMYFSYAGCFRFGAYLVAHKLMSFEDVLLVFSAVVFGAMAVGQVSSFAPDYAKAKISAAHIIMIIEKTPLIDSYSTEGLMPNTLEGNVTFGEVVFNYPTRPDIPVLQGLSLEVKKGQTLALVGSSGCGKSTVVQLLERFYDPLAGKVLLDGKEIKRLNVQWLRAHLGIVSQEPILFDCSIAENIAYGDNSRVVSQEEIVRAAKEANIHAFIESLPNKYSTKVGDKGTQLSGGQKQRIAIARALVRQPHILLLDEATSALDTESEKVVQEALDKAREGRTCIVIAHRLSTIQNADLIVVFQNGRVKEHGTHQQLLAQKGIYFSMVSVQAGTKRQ

The IC50 is the concentration that gives 50% inhibition. Turning to `O=C1c2ccccc2C(=O)c2c(-c3cccnc3)noc21` [Compound 9], the IC50 in the data set with NCI-H460 cells was determined as 96 ± 2 nM; with DLD1-TxR cells, 50 ± 1 nM. Also, the “Effect on P-gp ATPase activity” value on P-gp [1] is reported as “significant inhibition”. In addition, the “Change in P-gp expression, DLD1” value in the data set on P-gp expression is “did not change P-gp expression”. Also, in the data set on P-gp expression, the “Change in P-gp expression, NCI-H460” value was “did not change P-gp expression”. Further, on P-gp [2], the “Concentration dependence of P-gp inhibition (Rho 123 accumulation)” value is recorded as “concentration dependent effect”.

Compound `O=C1c2ccccc2C(=O)c2c(-c3ccncc3)noc21` [Compound 7] came in with an IC50 with NCI-H460 cells of 199 ± 5 nM. In addition, in the data set on DLD1-TxR cells, the “Efficacy in MDR DLD1-TxR cells compared with sensitive DLD1” value is “evaded resistance in both MDR cancer cell lines” and the IC50 worked out at 138 ± 3 nM. The “Effect on P-gp ATPase activity” value at P-gp [1] is reported as “potent dose-dependent inhibition”. In the data set with P-gp expression, the “Change in P-gp expression, DLD1” value is recorded as “did not change P-gp expression” and the “Change in P-gp expression, NCI-H460” value is reported as “did not change P-gp expression”. Also, on P-gp [2], the “Concentration dependence of P-gp inhibition (Rho 123 accumulation)” value is recorded as “concentration dependent effect”.

In the case of `O=C1c2ccccc2C(=O)c2c(-c3ccccc3O)noc21` [Compound 5], the IC50 in the data set with NCI-H460 cells worked out at 5720 ± 73 nM. Besides, in the data set on DLD1-TxR cells, the “Efficacy in MDR DLD1-TxR cells compared with sensitive DLD1” value is reported as “further compromised in the presence of MDR phenotype” and the IC50 was 11100 ± 304 nM. Besides, the “Effect on P-gp ATPase activity” value at P-gp [1] is “smallest effect on ATPase activity”. In addition, in the data set on P-gp expression, the “Change in P-gp expression, DLD1” value was “did not change P-gp expression” and the “Change in P-gp expression, NCI-H460” value is reported as “did not change P-gp expression”. Further, the “Change in P-gp expression, NCI-H460/R” value in the data set on P-gp expression (10 µM 5, 500 nM 7, 500 nM 9, 10 nM TQ) is listed as “significantly increased P-gp expression”. Besides, the “Concentration dependence of P-gp inhibition (Rho 123 accumulation)” value on P-gp [2] was “concentration dependent effect”.

(Values after paper PMC6770006, “Novel Heat Shock Protein 90 Inhibitors Suppress P-Glycoprotein Activity and Overcome Multidrug Resistance in Cancer Cells” (International Journal of Molecular Sciences, 2019).)
